Source: US20250099493A1, “PHOSPHONATES AS INHIBITORS OF ENPP1 AND CDNP” (STINGRAY THERAPEUTICS, INC., priority 2020, published 2025)
pIC50: −log10 of the molar value. Like-named read-outs stand apart in the source and are kept apart here.

Experiments:
Recombinant CndP (CdnP) = Recombinant CndP (CdnP) (Mycobacterium tuberculosis (strain ATCC 25618 / H37Rv), UniProt P71615); assay: CndP Assay with BPNPP substrate; format: biochemical, M. tuberculosis; conditions: pH 8.0, 37° C. 45 minutes, read-out: Inhibition of CdnP IC50
[1] = target: Recombinant Human ENPP-1 Protein (Homo sapiens (Human), UniProt P22413); assay: ENPP1 Inhibition Assay; format: biochemical
Description: Assay Buffer: 1 mM CaCl2), 0.2 mM ZnCl2, 50 mM Tris, pH 9.0. Substrate: 8 mM Thymidine 5′-monophosphate p-nitrophenol ester sodium salt (Sigma Cat #T4510). Enzyme: […] Recombinant Human ENPP-1 Protein (R&D Cat #6136-EN-010) in DMSO in 96-well clear assay plates.
An eight point serial dilution of drugs was prepared in 10× in assay buffer with the final assay concentrations starting at 10 μM, 3 μM, 1 μM, 0.3 μM and 0 μM. A dilution of DMSO was included as a control. The assay plate was set up as follows with each well in duplicate: 81 μL assay buffer+10 μL ENPP1 inhibitor or DMSO+5 μL Substrate+4 μL Enzyme. Both the enzyme and substrate was added to opposite sides of the well to ensure that there was no interaction until all wells had both components. The plate was then centrifuged gently for 10 seconds, followed by an incubation at 37° C. for 45 minutes. The reaction was quantified by measuring absorbance at 405 nm using an Envision plate reader.
IC50 values are determined using GraphPad Prism 5 software. The data were entered as an X-Y plot into the software as percent inhibition for each concentration of the drug. The concentration values of the drug were log transformed and the nonlinear regression was carried out using the “sigmoidal dose-response (variable slope)” option within the GraphPad software to model the data and calculate IC50 values. The IC50 values reported are the concentration of drug at which 50% inhibition was reached.

Recombinant CdnP Protein = Recombinant CdnP Protein (Mycobacterium tuberculosis (strain ATCC 25618 / H37Rv), UniProt P71615); assay: CdnP HPLC Assay with C-DI-AMP Substrate; format: biochemical, M. tuberculosis; conditions: HPLC AMP peak area, read-out: Inhibition percentage of CdnP; for inhibition at 100 µM: 100 μM compound
[2] = substrate thymidine 5′-monophosphate p-nitrophenol ester, pH 9.0, 37° C. 45 minutes, read-out: Inhibition of ENPP1 IC50

Chain of Recombinant CndP (CdnP) (P71615 whole entry, looked up): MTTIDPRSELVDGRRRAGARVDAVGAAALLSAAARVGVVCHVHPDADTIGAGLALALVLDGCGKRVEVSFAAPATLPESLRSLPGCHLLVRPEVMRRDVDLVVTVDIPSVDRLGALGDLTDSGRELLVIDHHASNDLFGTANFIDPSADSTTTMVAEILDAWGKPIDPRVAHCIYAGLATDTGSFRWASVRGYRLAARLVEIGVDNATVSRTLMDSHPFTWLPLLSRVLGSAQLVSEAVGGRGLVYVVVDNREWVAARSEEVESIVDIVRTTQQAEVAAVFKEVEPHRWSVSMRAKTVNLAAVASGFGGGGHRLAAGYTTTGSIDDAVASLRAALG
Chain of Recombinant CdnP Protein (P71615 whole entry, looked up): as above
Chain of Recombinant Human ENPP-1 Protein (P22413 99-925): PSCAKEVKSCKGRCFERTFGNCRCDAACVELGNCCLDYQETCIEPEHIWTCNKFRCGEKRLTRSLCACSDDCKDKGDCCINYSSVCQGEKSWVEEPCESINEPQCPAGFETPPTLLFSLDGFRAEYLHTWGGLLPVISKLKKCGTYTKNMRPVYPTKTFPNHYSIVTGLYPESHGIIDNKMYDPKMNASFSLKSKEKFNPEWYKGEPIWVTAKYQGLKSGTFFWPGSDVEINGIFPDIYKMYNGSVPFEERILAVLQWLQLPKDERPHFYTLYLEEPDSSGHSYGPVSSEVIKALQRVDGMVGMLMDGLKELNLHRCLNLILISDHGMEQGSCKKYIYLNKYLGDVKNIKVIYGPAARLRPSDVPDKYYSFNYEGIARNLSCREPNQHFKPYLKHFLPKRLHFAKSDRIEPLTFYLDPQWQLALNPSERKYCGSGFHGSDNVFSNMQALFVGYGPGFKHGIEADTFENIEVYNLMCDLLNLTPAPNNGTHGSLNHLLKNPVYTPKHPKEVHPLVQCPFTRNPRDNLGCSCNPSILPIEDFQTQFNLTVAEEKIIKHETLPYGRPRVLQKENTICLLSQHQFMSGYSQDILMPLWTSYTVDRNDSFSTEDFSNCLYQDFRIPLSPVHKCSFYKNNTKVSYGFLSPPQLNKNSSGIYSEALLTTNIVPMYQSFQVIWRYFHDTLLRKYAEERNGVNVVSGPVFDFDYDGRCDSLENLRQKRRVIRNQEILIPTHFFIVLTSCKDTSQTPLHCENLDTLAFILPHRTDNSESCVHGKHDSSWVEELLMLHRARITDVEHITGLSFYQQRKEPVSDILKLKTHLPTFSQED

| Structure (SMILES) | pIC50 (Recombinant CndP (CdnP)) | pIC50 [1] | pIC50 [1, 2] | inhibition at 100 µM (Recombinant CdnP Protein) [%] | inhibition at 1 µM (Recombinant CdnP Protein; 1 μM compound) [%] | inhibition at 10 µM (Recombinant CdnP Protein; 10 μM compound) [%] |
| --- | --- | --- | --- | --- | --- | --- |
| COc1cc2ncnc(N3CCCC(CP(=O)(O)O)CC3)c2cc1OC (stereo not drawn) [Compound I-3, ((1-(6,7-dimethoxyquinazolin-4-yl)azepan-4-yl)methyl)phosphonic acid] | 6.00 to 7.00 | 7.00 to 8.00 |  |  |  |  |
| COc1cccc2c(N3CCCC(CP(=O)(O)O)CC3)ccnc12 (stereo not drawn) [Compound I-8, ((1-(8-methoxyquinolin-4-yl)azepan-4-yl)methyl)phosphonic acid] | 6.00 to 7.00 |  | < 7.00 |  |  |  |
| COc1cc2ncnc(-c3ccc(CP(=O)(O)O)nc3)c2cc1OC [II-1, ((5-(6,7-dimethoxyquinazolin-4-yl)pyridin-2-yl)methyl)phosphonic acid] |  |  |  | > 50 |  |  |
| COc1cc2ncnc(N3CCCN(CP(=O)(O)O)CC3)c2cc1OC [Compound I-6, ((4-(6,7-dimethoxyquinazolin-4-yl)-1,4-diazepan-1-yl)methyl)phosphonic acid] | < 6.00 |  | < 7.00 |  |  |  |
| COc1cc2ncnc(N3CCCC(CCP(=O)(O)O)CC3)c2cc1OC (stereo not drawn) [Compound I-4, (2-(1-(6,7-dimethoxyquinazolin-4-yl)azepan-4-yl)ethyl)phosphonic acid] | > 7.00 |  | > 8.00 |  |  |  |
| COc1cc2ncnc(N3CCC[C@@H](CP(=O)(O)O)CC3)c2cc1OC [Compound I-1, (R)-((1-(6,7-dimethoxyquinazolin-4-yl)azepan-4-yl)methyl)phosphonic acid] | 6.00 to 7.00 | 7.00 to 8.00 |  | > 50 | < 20 | > 50 |
| COc1cc2ncnc(N3CCCC(CCCP(=O)(O)O)CC3)c2cc1OC (stereo not drawn) [Compound I-5, (3-(1-(6,7-dimethoxyquinazolin-4-yl)azepan-4-yl)propyl)phosphonic acid] | 6.00 to 7.00 | 7.00 to 8.00 |  |  |  |  |
| COc1cccc2c(N3CCCC(CP(=O)(O)O)CC3)ncnc12 (stereo not drawn) [Compound I-9, ((1-(8-methoxyquinazolin-4-yl)azepan-4-yl)methyl)phosphonic acid] | 6.00 to 7.00 |  | > 8.00 |  |  |  |
| COc1cc2ncc(C#N)c(N3CCCC(CP(=O)(O)O)CC3)c2cc1OC (stereo not drawn) [Compound I-7, ((1-(3-cyano-6,7-dimethoxyquinolin-4-yl)azepan-4-yl)methyl)phosphonic acid] | > 7.00 |  | > 8.00 |  |  |  |
| COc1cc2ncnc(N3CCCC(CP(=O)(OCOC(=O)C(C)C)OCOC(=O)C(C)C)CC3)c2cc1OC (stereo not drawn) [Compound I-10, ((((1-(6,7-dimethoxyquinazolin-4-yl)azepan-4-yl)methyl)phosphoryl)bis(oxy))bis(methylene) bis(2-methylpropanoate)] | < 6.00 |  | < 7.00 |  |  |  |
| COc1cc2ncnc(N3CCC[C@H](CP(=O)(O)O)CC3)c2cc1OC [Compound I-2, (S)-((1-(6,7-dimethoxyquinazolin-4-yl)azepan-4-yl)methyl)phosphonic acid] | 6.00 to 7.00 |  | < 7.00 |  |  |  |
